Measurements published in patent US7211602B2, “Treatment of neurodegenerative disorders through the modulation of the polyamine pathway” (ALS Therapy Development Foundation, Inc., priority 2001, dated 2007).
Read-outs that look alike come from different tables or passages of the source.

What was measured:
[1] = tested on: SOD1 G93A mice
Excerpt: • (i) Model Description: The SOD1 G93A (high copy) mouse model was used as the model for ALS. This mouse model carries 25 copies of the human G93A SOD mutation and is driven by the endogenous promoter. Survival in the mouse is copy dependent. The high copy G93A has a median survival of around 128 days. High molecular weight complexes of mutant SOD protein are seen in the spinal cord beginning around day 30. At day 60 reactive astrocytosis (GFAP reactive) are observed; activated microglia are observed from day 90 onwards.
DFMO was obtained in oral form from ILEX Oncology, Inc (San Antonio, Tex.). • (iv) Methods: Forty (n=40) SOD1 G93A high copy mice obtained from Jackson Laboratory (Bar Harbor, Me.) were separated into two groups of twenty (n=20) with an equal number of males (n=10) and females (n=10) in each group. The groups were also litter matched to reduce group variation. Male animals were singly housed and females were group housed to conserve space. […] When animals had difficulty in moving and taking care of themselves chow and water were replaced with food pellets in bedding and Jell-O for water. • (v) Pharmacological Agent Delivery: All pharmacological agents were administered to SOD1 G93A mice. DFMO was delivered according to a chronic delivery protocol applied in the human glioblastoma trial (UCSF Clinical trial protocol of ALS).
In Example 2, the animals were dosed at 3200 mg/Kg/day of DFMO in drinking water for 21 days followed by a 7 day drug holiday (no DFMO). In Example 3, the animals were continually dosed at 3200 mg/Kg/day of DFMO in drinking water. Controls animals were given water as vehicle. All treatments are performed 7 days per week and treatment was initiated at day 60 of life. The treated group continued to receive 3200 mg/kg/day of DFMO in drinking water until a neurological score of 2 (See section (vi) below) at which point drug was delivered via intraperitineal injection (IP) injection. When a neurological score of 2 is attained, the animals are no longer capable of drinking themselves due to paralysis. At this point, the same dosage of DFMO is administered to the animal in IP injection form. Controls were given water as vehicle until a neurological score of 2 at which point they were injected with saline as vehicle.
In Example 6, hydroxyurea was administered by intraperitineal injection at a dose of 250 mg/Kg/day once daily for 7 days a week, beginning at day 50 until day 110.
The animals are sacrificed at this stage if alive. • (vii) End Points and Statistics: The primary end point is survival with secondary end points of neurological score and body weight. Neurological score observations and body weight are made and recorded five days per week. • (viii) Statistical Analysis: Statistical analysis on body weight and neurological score was performed using mixed linear model repeated measure ANOVA. Survival analysis was performed by Kaplan-Meier analysis using the frailty model for sex and litter correction.

[2] = tested on: patients with advanced non-small cell lung cancer; settings: Hahm et al. 2002; cited from earlier work
[3] = tested on: ODC; settings: cited from earlier work

## NCCCC(N)(C(=O)O)C(F)F (racemic) [DFMO, 2-(Difuoromethyl)-DL-ornithine]
[1]; IP injection, 3200 mg/kg, male mice
  effect in male mice, ongoing IP injection study: positive male trend
[1]; continuous dosing 3200 mg/Kg/day in drinking water, no drug holiday, until death, FIGS. 4, 6 and 8
  Percent survival analysis: life span: extended the life span
[1]; continuous dosing 3200 mg/Kg/day, combined male and female, FIG. 5
  Neurological score analysis, combined male and female: protective
[1]; continuous dosing 3200 mg/Kg/day, FIG. 9
  Neurological score analysis, female: protective
[1]; continuous dosing 3200 mg/Kg/day, male, FIG. 7
  Neurological score analysis, male: protective
[1]; discontinuous dosing 3200 mg/Kg/day, combined male and female mice
  Neurological score analysis, combined results: No effect
[1]; discontinuous dosing 3200 mg/Kg/day, female mice, during the drug delivery period, FIG. 3
  Neurological score analysis, female mice: protective
[1]; discontinuous dosing 3200 mg/Kg/day, male mice
  Neurological score analysis, male mice: No effect
[1]; discontinuous dosing, 3200 mg/Kg/day in drinking water, 21 days on / 7 day holiday, FIG. 2
  Percent survival analysis: onset of disease and survival: delays the onset of disease and extends the survival
[1]; female SOD1 G93A mice, 3200 mg/Kg/day in drinking water for 21 days followed by 7 day drug holiday, control group 30%, FIG. 2
  deaths of animals in the treatment group that occurred during the drug holiday or a few days immediately succeeding the holiday: 70%

## CCNCCCNCCCNCCCNCC [DENSPM, N(1),N(11)-diethylnorspermine]
[1]; intraperitoneal 24 mg/kg/day twice daily till death, FIG. 13
  Neurological score analysis, female: protective
[1]; intraperitoneal 24 mg/kg/day twice daily, 7 days a week till death, female mice, FIG. 12
  Percent survival analysis: onset of disease and survival: delays the onset of disease and extends the survival
[2]
  safety of administration to patients: minimal toxicity

## NC(=O)NO [hydroxyurea]
[1]; intraperitoneal 250 mg/Kg/day once daily, day 50 until day 110, female mice, FIG. 10
  Percent survival analysis: life span: extended the life span
[1]; intraperitoneal 250 mg/Kg/day once daily, day 50 until day 110, FIG. 11
  Neurological score analysis, female: protective

## NCCCCNCCCN [spermidine]
[3]
  concentration in the culture medium that can inhibit ODC production for hours: 50 µM
